Source: PubChem BioAssay (NCI)
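Five compound concentrations were applied to cells in 96-well plates for 48 hours; endpoints were derived by simple linear interpolation of the resulting dose-response curve. GI50 = concentration required for 50% inhibition of growth. TGI marks complete inhibition of growth.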

Columns and labels:
Assay in all cases: NCI tumour cell line growth inhibition, 48 h
[1] = tested on: SN12C renal
[2] = tested on: SK-OV-3 ovarian
[3] = tested on: UACC-62 melanoma
[4] = tested on: UACC-257 melanoma
[5] = tested on: SK-MEL-28 melanoma
[6] = tested on: 786-0 renal
[7] = tested on: SF-268 CNS
[8] = tested on: RXF 393 renal

Compound	TGI [1] [µM]	TGI [2] [µM]	TGI [3] [µM]	TGI [4] [µM]	TGI [5] [µM]	TGI [6] [µM]	TGI [7] [µM]	TGI [8] [µM]	GI50 [1] [nM]	GI50 [2] [µM]	GI50 [7] [nM]	GI50 [4] [µM]	GI50 [5] [µM]	GI50 [8] [µM]
O=c1[nH]c(Nc2ccccc2)nc2c1ncn2CC(O)CSCCO (stereo not given)	> 100	> 100	> 100	> 100	> 100	> 100	> 100	–	–	–	–	–	–	–
COc1cc(/C=C2\C(=O)N(c3cccc([N+](=O)[O-])c3)C(c3ccccc3)S2(=O)=O)cc(OC)c1OC (stereo not given)	> 100	> 100	> 100	> 100	> 100	> 100	–	> 100	–	–	–	–	–	–
CC(=O)Nc1ccc2c(C)c3c(nc2n1)[nH]c1ccccc13	> 100	–	60.9	> 100	–	> 100	> 100	> 100	–	–	–	–	–	–
OC1[C@@H]2[C@@H](O)CCCN2C[C@@H](O)[C@H]1O (stereo not given in full)	> 100	> 100	> 100	> 100	> 100	> 100	> 100	> 100	–	–	–	–	–	–
CSc1ncc2c(n1)C(C#N)C1Sc3ccccc3N1C2=O (stereo not given)	> 100	> 100	–	> 100	> 100	> 100	> 100	> 100	–	–	–	–	–	–
Nc1n(CC(=O)c2ccccc2)nc2sc(-c3ccccc3)n[n+]12	> 100	92	25.1	> 100	> 100	48.4	62.5	25.1	–	–	–	–	–	–
COC(=O)[C@H]1C=NN[C@@H]1C(=O)N1[C@H]2CC3CC[C@@]2(CS1(=O)=O)C3(C)C	> 100	> 100	–	> 100	> 100	–	> 100	–	–	–	–	–	–	–
COc1cccc(N2C(=O)CSC2c2cccc(Oc3ccccc3)c2)c1 (stereo not given)	25	> 100	11.7	12.3	> 100	24	42.9	39.1	–	–	–	–	–	–
CC(C)=CCN1c2ccccc2NC(=O)CC1C (stereo not given)	81.2	> 100	–	> 100	> 100	> 100	> 100	> 100	–	–	–	–	–	–
CC(=O)NC1C(OCc2ccccc2)OC(CO)C(O)C1OCC(=O)N1CCCC1C(=O)N[C@@H](CCC(=O)NCCCCNc1c2ccccc2nc2cccc([N+](=O)[O-])c12)C(N)=O (stereo not given in full)	> 100	> 100	–	–	> 100	> 100	> 100	–	–	–	–	–	–	–
Cn1c(=O)c2c(nc3n(CC(O)CCl)c(=O)ccn23)n(C)c1=O (stereo not given)	> 100	> 100	> 100	> 100	> 100	> 100	> 100	> 100	–	–	–	–	–	–
Oc1cc(Cc2ccccc2)c(Cc2ccccc2)cc1O	> 10	> 10	> 10	> 10	> 10	> 10	> 10	> 10	–	–	–	–	–	–
CCc1n[nH]c(=O)n1CCCCCCCCCCCCn1c(CC)n[nH]c1=O	> 100	> 100	61.3	40.2	–	> 100	> 100	> 100	–	–	–	–	–	–
CC(N=NNc1ccc(-c2nc3ccccc3[nH]2)cc1)C(=O)O (stereo not given)	> 100	> 100	–	> 100	> 100	89.9	> 100	> 100	–	–	–	–	–	–
Cc1ccc(Nc2nc3[nH]ccc3c(=O)[nH]2)cc1	> 100	> 100	> 100	> 100	–	> 100	> 100	> 100	–	–	–	–	–	–
CN1CCC(CNc2cc(C3(C(=O)Nc4cc(C(=O)Nc5ccc(Cl)c(C(F)(F)F)c5)ccc4F)CC3)ncn2)CC1	8.92	4.58	–	–	–	–	5.5	–	2560	2.17	2080	–	–	–
CCNCCNC(=O)c1ccc(I)cc1	> 100	> 100	> 100	–	> 100	> 100	> 100	> 100	–	–	–	–	–	–
O=c1[nH]/c(=C/c2ccc(OCc3ccccc3)cn2)c(=O)[nH]/c1=C/c1ccccc1	–	> 100	> 100	> 100	> 100	> 100	> 100	> 100	–	–	–	–	–	–
Cc1ccc2c(c1)-c1nc(N)c(C#N)c(-c3ccc(Cl)cc3)c1CCS2(=O)=O	> 100	–	> 100	> 100	> 100	> 100	> 100	–	–	–	–	–	–	–
C#CCNC(CSSCC(N)C(=O)O)C(=O)O (stereo not given)	–	> 100	> 100	> 100	> 100	> 100	> 100	> 100	–	–	–	–	–	–
C=CCC1(C#N)C(=S)NC2=C(C(=O)CC(C)(C)C2)C1c1ccccc1 (stereo not given)	> 100	–	–	–	> 100	> 100	–	> 100	–	–	–	–	–	–
N#CN1C2CCC1CC(=O)C2	> 100	> 100	> 100	> 100	> 100	> 100	> 100	–	–	–	–	–	–	–
CCN(CCCOc1ccccc1)CCN(CC)CCCOc1ccccc1	44.8	–	36.7	31.5	36.7	50.7	28.4	38.5	–	–	–	–	–	–
Fc1ccc(C(OCCN2CCN(CCCc3ccccc3)CC2)c2ccc(F)cc2)cc1	15.8	18.9	21.4	8.62	23.6	–	14.6	11.3	–	–	–	–	–	–
CCCCN(CCCC)Cc1cc(Nc2ccnc3cc(Cl)ccc23)ccc1O	–	> 100	–	> 100	> 100	–	> 100	> 100	–	8.83	> 100000	40.1	43.1	20.9
C=CCn1c(=O)c(C)cn(COCCO)c1=O	> 100	–	–	> 100	> 100	–	> 100	> 100	–	–	–	–	–	–
CCn1nc(C)c2c1C(=O)NCC(=O)N2	> 100	> 100	> 100	> 100	> 100	–	> 100	> 100	–	–	–	–	–	–
